The subject of this experiment is Mycobacterium tuberculosis H37Rv. Briefly: Mycobacterium tuberculosis H37Rv inhibition assay (MIC, resazurin fluorescence). It is filed as cell-based. Conditions: ATCC 25618 / H37Rv, 144 h, H37Rv strain (ATCC25618), Middlebrook 7H9, six days at 37° C. then resazurin 48 hours. (The colour change of resazurin is a common sign of viable cells or microbes.)
On to `O=c1ccc2ncc(F)cc2n1CCN1CCC(NCc2ccc(Br)cn2)CC1` [Example 1, 1-[2-(4-{[(5-Bromo-2-pyridinyl)methyl]amino}-1-piperidinyl)ethyl]-7-fluoro-1,5-naphthyridin-2(1H)-one], for which the MIC was no more than 1 µg/mL. As for `Cl.Cl.O=c1ccc2ncc(F)cc2n1CCN1CCC(NCc2ccc(Br)cn2)CC1` [Example 1b, 1-[2-(4-{[(5-Bromo-2-pyridinyl)methyl]amino}-1-piperidinyl)ethyl]-7-fluoro-1,5-napthyridin-2(1H)-one dihydrochloride], the figure is no more than 1 µg/mL; as for `COc1cnc2ccc(=O)n(CCN3CCC(NCc4cnc(Br)s4)CC3)c2c1` [Example 2, 1-[2-(4-{[(2-Bromo-1,3-thiazol-5-yl)methyl]amino}-1-piperidinyl)ethyl]-7-(methyloxy)-1,5-naphthyridin-2(1H)-one], no more than 1 µg/mL; as for `COc1cnc2ccc(=O)n(CCN3CCC(NCc4cnc(Br)s4)CC3)c2c1.Cl` [Example 2b, 1-[2-(4-{[(2-Bromo-1,3-thiazol-5-yl)methyl]amino}-1-piperidinyl)ethyl]-7-(methyloxy)-1,5-naphthyridin-2(1H)-one hydrochloride], no more than 1 µg/mL. `O=c1ccc2ncc(F)cc2n1CCN1CCC(NCc2ccc(Cl)c(Cl)c2)CC1` [Example 3, 1-[2-(4-{[(3,4-Dichlorophenyl)methyl]amino}-1-piperidinyl)ethyl]-7-fluoro-1,5-naphthyridin-2(1H)-one] showed an MIC of no more than 1 µg/mL. The result for `Cl.Cl.O=c1ccc2ncc(F)cc2n1CCN1CCC(NCc2ccc(Cl)c(Cl)c2)CC1` [Example 3b, 1-[2-(4-{[(3,4-Dichlorophenyl)methyl]amino}-1-piperidinyl)ethyl]-7-fluoro-1,5-naphthyridin-2(1H)-one dihydrochloride] reads no more than 1 µg/mL. `COc1cnc2ccc(=O)n(CCN3CCC(NCc4ccc(C(F)(F)F)nc4)CC3)c2c1` [Example 4, 7-(Methyloxy)-1-{2-[4-({[6-(trifluoromethyl)-3-pyridinyl]methyl}amino)-1-piperidinyl]ethyl}-1,5-naphthyridin-2(1H)-one]: the MIC was no more than 1 µg/mL. As for `COc1cnc2ccc(=O)n(CCN3CCC(NCc4ccc(C(F)(F)F)nc4)CC3)c2c1.Cl` [Example 4b, 7-(Methyloxy)-1-{2-[4-({[6-(trifluoromethyl)-3-pyridinyl]methyl}amino)-1-piperidinyl]ethyl}-1,5-naphthyridin-2(1H)-one hydrochloride], the figure is no more than 1 µg/mL; as for `COc1cnc2ccc(=O)n(CCN3CCC(NCc4nc(C)c(C)s4)CC3)c2c1` [Example 6, 1-[2-(4-{[(4,5-Dimethyl-1,3-thiazol-2-yl)methyl]amino}-1-piperidinyl)ethyl]-7-(methyloxy)-1,5-naphthyridin-2(1H)-one], no more than 2.4 µg/mL. As for `O=c1ccc2ncccc2n1CCN1CCC(NCc2ccc(Cl)c(Cl)c2)CC1` [Example 8, 1-[2-(4-{[(3,4-Dichlorophenyl)methyl]amino}-1-piperidinyl)ethyl]-1,5-naphthyridin-2(1H)-one], the figure is no more than 1 µg/mL; as for `Cl.Cl.O=c1ccc2ncccc2n1CCN1CCC(NCc2ccc(Cl)c(Cl)c2)CC1` [Example 8b, 1-[2-(4-{[(3,4-Dichlorophenyl)methyl]amino}-1-piperidinyl)ethyl]-1,5-naphthyridin-2(1H)-one dihydrochloride], no more than 1 µg/mL; as for `O=c1ccc2ncccc2n1CCN1CCC(NCc2ccc(Br)nc2)CC1` [Example 9, 1-[2-(4-{[(6-Bromo-3-pyridinyl)methyl]amino}-1-piperidinyl)ethyl]-1,5-naphthyridin-2(1H)-one], no more than 2.4 µg/mL. The result for `COc1cnc2ccc(=O)n(CCN3CCC(NCc4ccc(Cl)c(Cl)c4)CC3)c2c1` [Example 11, 1-[2-(4-{[(3,4-Dichlorophenyl)methyl]amino}-1-piperidinyl)ethyl]-7-(methyloxy)-1,5-naphthyridin-2(1H)-one] reads no more than 1 µg/mL; that for `COc1cnc2ccc(=O)n(CCN3CCC(NCc4ccc(Cl)c(Cl)c4)CC3)c2c1.Cl` [Example 11b, 1-[2-(4-{[(3,4-Dichlorophenyl)methyl]amino}-1-piperidinyl)ethyl]-7-(methyloxy)-1,5-naphthyridin-2(1H)-one hydrochloride], no more than 1 µg/mL. As to `COc1cnc2ccc(=O)n(CCN3CCC(NCc4ccc(Cl)c(Cl)c4)CC3)c2c1.Cl.Cl` [Example 11c, 1-[2-(4-{[(3,4-Dichlorophenyl)methyl]amino}-1-piperidinyl)ethyl]-7-(methyloxy)-1,5-naphthyridin-2(1H)-one dihvdrochloride], the MIC is no more than 1 µg/mL. In turn, `COc1cnc2ccc(=O)n(CCN3CCC(NCc4ccc(Cl)cc4)CC3)c2c1` [Example 12, 1-[2-(4-{[(4-Chlorophenyl)methyl]amino}-1-piperidinyl)ethyl]-7-(methyloxy)-1,5-naphthyridin-2(1H)-one] yielded an MIC of no more than 1 µg/mL. As for `COc1cnc2ccc(=O)n(CCN3CCC(NCc4ccc(Cl)cc4)CC3)c2c1.Cl.Cl` [Example 12b, 1-[2-(4-{[(4-Chlorophenyl)methyl]amino}-1-piperidinyl)ethyl]-7-(methyloxy)-1,5-naphthyridin-2(1H)-one dihydrochloride], the figure is no more than 1 µg/mL; as for `COc1cnc2ccc(=O)n(CCN3CCC(NCc4ccc(Cl)cc4)CC3)c2c1.Cl` [Example 12c, 1-[2-(4-{[(4-Chlorophenyl)methyl]amino}-1-piperidinyl)ethyl]-7-(methyloxy)-1,5-naphthyridin-2(1H)-one hydrochloride], no more than 1 µg/mL; as for `O=c1ccc2ncc(F)cc2n1CCN1CCC(NCc2ccc(Br)o2)CC1` [Example 34, 1-[2-(4-{[(5-bromo-2-furanyl)methyl]amino}-1-piperidinyl)ethyl]-7-fluoro-1,5-naphthyridin-2(1H)-one], no more than 2.4 µg/mL. The result for `O=c1ccc2ncc(F)cc2n1CCN1CCC(NCc2cc(Cl)ccc2Cl)CC1` [Example 38, 1-[2-(4-{[(2,5-dichlorophenyl)methyl]amino}-1-piperidinyl)ethyl]-7-fluoro-1,5-naphthyridin-2(1H)-one] reads no more than 2.4 µg/mL; that for `O=c1ccc2ncccc2n1CCN1CCC(NCc2ccc(Br)s2)CC1` [Example 48, 1-[2-(4-{[(5-bromo-2-thienyl)methyl]amino}-1-piperidinyl)ethyl]-1,5-naphthyridin-2(1H)-one], no more than 2.4 µg/mL; that for `O=c1ccc2ncccc2n1CCN1CCC(NCc2cnc(Br)s2)CC1` [Example 49, 1-[2-(4-{[(2-bromo-1,3-thiazol-5-yl)methyl]amino}-1-piperidinyl)ethyl]-1,5-naphthyridin-2(1H)-one], no more than 2.4 µg/mL.

For `COc1ccc(CNC2CCN(CCn3c(=O)ccc4ncccc43)CC2)cc1Cl` [Example 51, 1-{2-[4-({[3-chloro-4-(methyloxy)phenyl]methyl}amino)-1-piperidinyl]ethyl}-1,5-naphthyridin-2(1H)-one], the MIC was no more than 2.4 µg/mL. As for `COc1cnc2ccc(=O)n(CCN3CCC(NCc4nc(Br)cs4)CC3)c2c1` [Example 64, 1-[2-(4-{[(4-bromo-1,3-thiazol-2-yl)methyl]amino}-1-piperidinyl)ethyl]-7-(methyloxy)-1,5-naphthyridin-2(1H)-one], the figure is no more than 2.4 µg/mL; as for `COc1cnc2ccc(=O)n(CCN3CCC(NCc4ccc(F)c(C)n4)CC3)c2c1` [Example 68, 1-[2-(4-{[(5-fluoro-6-methyl-2-pyridinyl)methyl]amino}-1-piperidinyl)ethyl]-7-(methyloxy)-1,5-naphthyridin-2(1H)-one], no more than 2.4 µg/mL.

The MIC is the least concentration at which growth counts as inhibited. Low readings indicate greater potency, high ones weaker potency.

The values are drawn from patent US20110319424A1, “NAPHTHYRIDIN-2(1H) -ONE COMPOUNDS USEFUL AS ANTIBACTERIALS” (priority 2008, published 2011).
